Assay results from patent US20220041627A1, “PRODRUGS OF ANTI-CANCER AND ANTI-AUTOIMMUNE DISEASES THERAPEUTIC AGENTS, AND METHODS OF MAKING AND USE THEREOF” (UNIVERSITY OF MARYLAND, BALTIMORE, priority 2018, published 2022).
Where two headings read alike, the source gives them in different places.

How the values were obtained:
CCRF-CEM = test: NCI-60 growth inhibition, CCRF-CEM; type: cell-based, human; settings: Leukemia CCRF-CEM, 48 h
From the text: (§1) The anticancer effects of compounds 1a-1b against 60 human cancer cell lines (the Developmental Therapeutics Program of NCI) were studied. The cell lines were derived from different cancer types including leukemia, non-small-cell lung cancer, colon cancer, CNS cancer, melanoma, ovarian cancer, renal cancer, prostate cancer, and breast cancer (Table 1; the assay protocol can be found at: https://dtp.cancer.gov/default.htm). Compound 1a caused over 50% growth inhibition for most tested cell lines. […] Without wishing to be bound by any particular theory, it is believed that the differences in the anticancer effects between compounds 1a and 1b may be due to the more favorable cell membrane permeability of the boronic ester 1a.

HL-60(TB) = test: NCI-60 growth inhibition, HL-60(TB); type: cell-based, human; settings: Leukemia HL-60(TB), 48 h
From the text: as §1

EKVX = test: NCI-60 growth inhibition, EKVX; type: cell-based, human; settings: Non-Small Cell lung Cancer EKVX, 48 h
From the text: as §1

HOP-92 = test: NCI-60 growth inhibition, HOP-92; type: cell-based, human
From the text: as §1

NCI-H322M = test: NCI-60 growth inhibition, NCI-H322M; type: cell-based, human; settings: Non-Small Cell lung Cancer NCI-H322M, 48 h
From the text: as §1

HCT-116 = test: NCI-60 growth inhibition, HCT-116; type: cell-based, human
From the text: as §1

HCT-15 = test: NCI-60 growth inhibition, HCT-15; type: cell-based, human
From the text: as §1

KM12 = test: NCI-60 growth inhibition, KM12; type: cell-based, human
From the text: as §1

SNB-75 = test: NCI-60 growth inhibition, SNB-75; type: cell-based, human
From the text: as §1

LOX IMVI = test: NCI-60 growth inhibition, LOX IMVI; type: cell-based, human; settings: Melanoma LOX IMVI, 48 h
From the text: as §1

MDA-MB-435 = test: NCI-60 growth inhibition, MDA-MB-435; type: cell-based, human
From the text: as §1

UACC-257 = test: NCI-60 growth inhibition, UACC-257; type: cell-based, human
From the text: as §1

OVCAR-3 = test: NCI-60 growth inhibition, OVCAR-3; type: cell-based, human
From the text: as §1

SK-OV-3 = test: NCI-60 growth inhibition, SK-OV-3; type: cell-based, human
From the text: as §1

CAKI-1 = test: NCI-60 growth inhibition, CAKI-1; type: cell-based, human
From the text: as §1

RXF 393 = test: NCI-60 growth inhibition, RXF 393; type: cell-based, human
From the text: as §1

TK-10 = test: NCI-60 growth inhibition, TK-10; type: cell-based, human
From the text: as §1

PC-3 = test: NCI-60 growth inhibition, PC-3; type: cell-based, human
From the text: as §1

MCF7 = test: NCI-60 growth inhibition, MCF7; type: cell-based, human
From the text: as §1

HS 578T = test: NCI-60 growth inhibition, HS 578T; type: cell-based, human; settings: Breast Cancer HS 578T, 48 h
From the text: as §1

T-47D = test: NCI-60 growth inhibition, T-47D; type: cell-based, human; settings: Breast Cancer T-47D, 48 h
From the text: as §1

[1] = system: 60 human cancer cell lines; test: NCI-60 cellular antitumor activity profiling, panel summary; type: cell-based; settings: 48 h; for inhibition at 50 µM: Homo sapiens
From the text: as §1

PARP1 = test: Western blot of PARP1 in MCF7 cells; type: cell-based, human; settings: 48 h; for expression level of PARP1: compared to vehicle-treated cells; for level of cleavage of PARP1: compared to vehicle-treated controls
Description: (§2) FIGS. 4A and 4B illustrate the effect of compounds 1a-1b in apoptosis. FIG. 4A: immunofluorescence of DNA cleavage protein γH2Ax was enhanced by using 5-FU and prodrugs 1a-1b. FIG. 4B: immunoblot analysis of MCF-7 cells treated with 5-FU, prodrugs 1a-1b for apoptosis markers PARP1 and Caspase 3. The cells were treated for 48 h with the indicated concentrations of compounds.
(§3) Western Blot Analysis. Treated cells were washed once with PBS and lysed with RIPA lysis buffer (Santa Cruz Biotechnology, SCBT, #24948) supplemented with sodium orthovanadate, PMSF, protease and phosphatase inhibitor cocktails (Sigma Aldrich). Cell lysates were centrifuge for 15 min at 14,000×g and the supernatant was used for immunoblotting. Protein concentration was normalized for the samples and resolved on a 10-13% SDS-PAGE gel. Following transfer to nitrocellulose membrane, specific mouse primary antibodies from SCBT (PARP1 #sc-8007, caspase 3 #sc-7272) and Cell Signaling (cleaved PARP1 #9541, cleaved caspase-3 #9664) were added and incubated overnight. Secondary antibodies corresponding to the host of the primary antibodies was further incubated with the membrane and washed three times to remove excess antibodies. Odyssey Fc Imaging System (LI-COR, Lincoln, Nebr.) was used to quantify the chemiluminescent of the proteins.
(§4) To understand the mechanism of action of prodrugs 1a-1b, the impact of the treatment of compounds 1a-1b on the γH2AX formation in MCF7 cells were determined using immunofluorescence assay (FIG. 4A). […] The effects of prodrugs 1a-1b on the PARP1 and caspase 3 cleavage in MCF7 cells were also determined using Western blots assays (FIG. 4B). […] Treatment of 5-FU and compounds 1a-1b increased the levels of cleavage of PARP1 and caspase 3 in MCF7 cells, as compared with that in the vehicle-treated controls. Therefore, prodrugs 1a-1b, similar to 5-FU, can induce MCF7 cell apoptosis, which might contribute to their pharmacological actions.

caspase 3 = test: Western blot of caspase 3 in MCF7 cells; type: cell-based, human; settings: 48 h; for expression level of caspase 3: compared to vehicle-treated cells; for level of cleavage of caspase 3: compared to vehicle-treated controls
Description: as §2, §3, §4

With `CC1(C)OB(c2ccc(Cn3cc(F)c(=O)[nH]c3=O)cc2)OC1(C)C` [Compound 1a, 5-Fluoro-1-(4-(4,4,5,5-tetramethyl-1,3,2-dioxaborolan-2-yl)benzyl)pyrimidine-2,4(1H,3H)-dione] the inhibition at 50 µM (CCRF-CEM; Homo sapiens) was 62%, the inhibition at 50 µM (HL-60(TB); Homo sapiens) was 68% and the inhibition at 50 µM (EKVX; Homo sapiens) was 28%. The inhibition at 50 µM (HOP-92; Homo sapiens, Non-Small Cell lung Cancer HOP-92, 48 h) was 67%, the inhibition at 50 µM (NCI-H322M; Homo sapiens) was 14% and the inhibition at 50 µM (HCT-116; Homo sapiens, Colon Cancer HCT-116, 48 h) was 71%. The inhibition at 50 µM (HCT-15; Homo sapiens, Colon Cancer HCT-15, 48 h) was 32%, the inhibition at 50 µM (KM12; Homo sapiens, Colon Cancer KM12, 48 h) was 74% and the inhibition at 50 µM (SNB-75; Homo sapiens, CNS Cancer SNB-75, 48 h) was 62%. The inhibition at 50 µM (LOX IMVI; Homo sapiens) was 47%, the inhibition at 50 µM (MDA-MB-435; Homo sapiens, Melanoma MDA-MB-435, 48 h) was 96% and the inhibition at 50 µM (UACC-257; Homo sapiens, Melanoma UACC-257, 48 h) was 33%. For the same compound, the inhibition at 50 µM (OVCAR-3; Homo sapiens, Ovarian Cancer OVCAR-3, 48 h) was 95%, the inhibition at 50 µM (SK-OV-3; Homo sapiens, Ovarian Cancer SK-OV-3, 48 h) was 31% and the inhibition at 50 µM (CAKI-1; Homo sapiens, Renal Cancer CAKI-1, 48 h) was 25%. It also gave an inhibition at 50 µM (RXF 393; Homo sapiens, Renal Cancer RXF 393, 48 h) of 40%, an inhibition at 50 µM (TK-10; Homo sapiens, Renal Cancer TK-10, 48 h) of 21% and an inhibition at 50 µM (PC-3; Homo sapiens, Prostate Cancer PC-3, 48 h) of 45%. It also gave an inhibition at 50 µM (MCF7; Homo sapiens, Breast Cancer MCF7, 48 h) of 81%, an inhibition at 50 µM (HS 578T; Homo sapiens) of 63% and an inhibition at 50 µM (T-47D; Homo sapiens, T47D) of 51%. For the same compound, the inhibition at 50 µM ([1]; lung cancer NCI-H522, melanoma MDA-MB-435, ovarian cancer OVCAR-3, breast cancer MCF7 and MDA-MB-468 cells, read-out: most significant inhibition) was 81 to 96%, the inhibition at 50 µM ([1]; most cell lines of the NCI-60 panel, read-out: growth inhibition for most tested cell lines) was greater than 50% and the “expression level of PARP1” value (PARP1) was “significantly reduced”. The “level of cleavage of PARP1” value (PARP1) was “increased”, the “expression level of caspase 3” value (caspase 3) was “significantly reduced” and the “level of cleavage of caspase 3” value (caspase 3) was “increased”.
In the case of `O=c1[nH]c(=O)n(Cc2ccc(B(O)O)cc2)cc1F` [Compound 1b, (4-((5-Fluoro-2,4-dioxo-3,4-dihydropyrimidin-I(2H)-yl)methyl)phenyl)boronic acid], the “Growth Inhibition (%)” value (CCRF-CEM; 50 μM) is reported as 7%, the “Growth Inhibition (%)” value (HL-60(TB); 50 μM) is reported as 11% and the “Growth Inhibition (%)” value (EKVX; 50 μM) is reported as 16%. The “Growth Inhibition (%)” value (HOP-92; Non-Small Cell lung Cancer HOP-92, 50 μM, 48 h) was 35%, the “Growth Inhibition (%)” value (NCI-H322M; 50 μM) was 12% and the “Growth Inhibition (%)” value (HCT-116; Colon Cancer HCT-116, 50 μM, 48 h) was 18%. For the same compound, the “Growth Inhibition (%)” value (HCT-15; Colon Cancer HCT-15, 50 μM, 48 h) was 10%, the “Growth Inhibition (%)” value (KM12; Colon Cancer KM12, 50 μM, 48 h) was 20% and the “Growth Inhibition (%)” value (SNB-75; CNS Cancer SNB-75, 50 μM, 48 h) was 15%. For the same compound, the “Growth Inhibition (%)” value (LOX IMVI; 50 μM) was 8%, the “Growth Inhibition (%)” value (MDA-MB-435; Melanoma MDA-MB-435, 50 μM, 48 h) was 65% and the “Growth Inhibition (%)” value (UACC-257; Melanoma UACC-257, 50 μM, 48 h) was 14%. For the same compound, the “Growth Inhibition (%)” value (OVCAR-3; Ovarian Cancer OVCAR-3, 50 μM, 48 h) was 30%, the “Growth Inhibition (%)” value (SK-OV-3; Ovarian Cancer SK-OV-3, 50 μM, 48 h) was 13% and the “Growth Inhibition (%)” value (CAKI-1; Renal Cancer CAKI-1, 50 μM, 48 h) was 12%. For the same compound, the “Growth Inhibition (%)” value (RXF 393; Renal Cancer RXF 393, 50 μM, 48 h) was 17%, the “Growth Inhibition (%)” value (TK-10; Renal Cancer TK-10, 50 μM, 48 h) was 20% and the “Growth Inhibition (%)” value (PC-3; Prostate Cancer PC-3, 50 μM, 48 h) was 14%. For the same compound, the “Growth Inhibition (%)” value (MCF7; Breast Cancer MCF7, 50 μM, 48 h) was 33%, the “Growth Inhibition (%)” value (HS 578T; 50 μM) was 26% and the “Growth Inhibition (%)” value (T-47D; 50 μM) was 5%. For the same compound, the “growth inhibition for most tested cell lines” value ([1]; most cell lines of the NCI-60 panel, 50 μM) was “less than 50%”, the “expression level of PARP1” value (PARP1) was “significantly reduced” and the “level of cleavage of PARP1” value (PARP1) was “increased”. For the same compound, the “expression level of caspase 3” value (caspase 3) was “significantly reduced” and the “level of cleavage of caspase 3” value (caspase 3) was “increased”.
